Results from patent US10208059B2, “Heterocyclic modulators of HIF activity for treatment of disease” (Board of Regents, University of Texas System, priority 2012, dated 2019).

Tested on: 293T-HRE-GFP-luc cells
Experiment: Cell-based reporter assay for IC50 determinations
Details: hypoxia 6 hrs (1% O2), luminescence, read-out: IC50 Classification
In short: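 Cells carrying an HRE-driven GFP-luciferase reporter, seeded at 12,000/well and held overnight, then given 1:3 serial compound dilutions (DMSO, further diluted 1:50 in medium). After 30 min in normoxia, plates held 6 h in hypoxia (1% O2, 37 °C); luciferase luminescence read, IC50 by four-parameter logistic fit.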

Row | Structure (SMILES) | IC50
1 | COCCCn1ccc(Cn2nc(-c3nc(-c4ccc(OC(F)(F)F)cc4)no3)nc2C)cc1=O [Example 142, 1-(3-methoxypropyl)-4-[(5-methyl-3-{3-[4-(trifluoromethoxy)phenyl]-1,2,4-oxadiazol-5-yl}-1H-1,2,4-triazol-1-yl)methyl]-1,2-dihydropyridin-2-one] | 100 to 1000 nM
2 | Cc1nc(-c2nc(-c3ccc(OC(F)(F)F)cc3)no2)nn1Cc1ccnc(OCCN(C)C)c1 [Example 143, dimethyl[2-({4-[(5-methyl-3-{3-[4-(trifluoromethoxy)phenyl]-1,2,4-oxadiazol-5-yl}-1H-1,2,4-triazol-1-yl)methyl]pyridin-2-yl}oxy)ethyl]amine] | 100 to 1000 nM
3 | Cc1nc(-c2nc(-c3ccc(OC(F)(F)F)cc3)no2)nn1Cc1cccc(OCCCS(C)(=O)=O)c1 [Example 144, 5-(1-([3-(3-methanesulfonylpropoxy)phenyl]methyl)-5-methyl-1H-1,2,4-triazol-3-yl)-3-[4-(trifluoromethoxy)phenyl]-1,2,4-oxadiazole] | < 100 nM
4 | Cc1nc(-c2nc(-c3ccc(OC(F)(F)F)cc3)no2)nn1Cc1cccc(N2CCNC(=O)C2)c1 [Example 145, 4-{3-[(5-methyl-3-{3-[4-(trifluoromethoxy)phenyl]-1,2,4-oxadiazol-5-yl}-1H-1,2,4-triazol-1-yl)methyl]phenyl]piperazin-2-one] | < 100 nM
5 | Cc1nc(-c2nc(-c3ccc(OC(F)(F)F)cc3)no2)nn1Cc1ccnc(N2CCC(S(C)(=O)=O)CC2)c1 [Example 146, 2-(4-methanesulfonylpiperidin-1-yl)-4-[(5-methyl-3-{3-[4-(trifluoromethoxy)phenyl]-1,2,4-oxadiazol-5-yl}-1H-1,2,4-triazol-1-yl)methyl]pyridine] | < 100 nM
6 | Cc1nc(-c2nc(-c3ccc(OC(F)(F)F)cc3)no2)nn1Cc1cccc(N2CCCS2(=O)=O)c1 [Example 147, 2-(3-((5-methyl-3-(3-(4-(trifluoromethoxy)phenyl)-1,2,4-oxadiazol-5-yl)-1H-1,2,4-triazol-1-yl)methyl)phenyl)isothiazolidine 1,1-dioxide] | < 100 nM
7 | Cc1nc(-c2nc(-c3ccc(OC(F)(F)F)cc3)cs2)nn1Cc1cccc(N2CCN(C)CC2)c1 [Example 148, 1-methyl-4-{3-[(5-methyl-3-{4-[4-(trifluoromethoxy)phenyl]-1,3-thiazol-2-yl}-1H-1,2,4-triazol-1-yl)methyl]phenyl}piperazine] | < 100 nM
8 | Cc1ccc(Cn2nc(-c3nc(-c4ccc(OC(F)(F)F)cc4)cs3)nc2C)cc1 [Example 149, 5-methyl-1-[(4-methylphenyl)methyl]-3-{4-[4-(trifluoromethoxy)phenyl]-1,3-thiazol-2-yl}-1H-1,2,4-triazole] | < 100 nM
9 | COC(=O)c1cccc(Cn2nc(-c3nc(-c4ccc(OC(F)(F)F)cc4)cs3)nc2C)c1 [Example 150, methyl 3-[(5-methyl-3-{4-[4-(trifluoromethoxy)phenyl]-1,3-thiazol-2-yl}-1H-1,2,4-triazol-1-yl)methyl]benzoate] | 100 to 1000 nM
10 | Cc1nc(-c2nc(-c3ccc(OC(F)(F)F)cc3)cs2)nn1Cc1cccc(O)c1 [Example 151, 3-[(5-methyl-3-{4-[4-(trifluoromethoxy)phenyl]-1,3-thiazol-2-yl}-1H-1,2,4-triazol-1-yl)methyl]phenol] | 100 to 1000 nM
11 | Cc1nc(-c2ncc(-c3ccc(OC(F)(F)F)cc3)o2)nn1Cc1cccc(N2CCN(C)CC2)c1 [Example 152, 1-methyl-4-{3-[(5-methyl-3-{5-[4-(trifluoromethoxy)phenyl]-1,3-oxazol-2-yl}-1H-1,2,4-triazol-1-yl)methyl]phenyl}piperazine] | < 100 nM
12 | Cc1nc(-c2ncc(-c3ccc(OC(F)(F)F)cc3)o2)nn1Cc1cccc(S(=O)(=O)N2CCOCC2)c1 [Example 153, 4-{3-[(5-methyl-3-{5-[4-(trifluoromethoxy)phenyl]-1,3-oxazol-2-yl}-1H-1,2,4-triazol-1-yl)methyl]benzenesulfonyl}morpholine] | 100 to 1000 nM
13 | Cc1ccc(Cn2nc(-c3ncc(-c4ccc(OC(F)(F)F)cc4)o3)nc2C)cc1 [Example 154, 5-methyl-1-[(4-methylphenyl)methyl]-3-{5-[4-(trifluoromethoxy)phenyl]-1,3-oxazol-2-yl}-1H-1,2,4-triazole] | 100 to 1000 nM
14 | COC(=O)c1cccc(Cn2nc(-c3ncc(-c4ccc(OC(F)(F)F)cc4)o3)nc2C)c1 [Example 155, methyl 3-[(5-methyl-3-{5-[4-(trifluoromethoxy)phenyl]-1,3-oxazol-2-yl}-1H-1,2,4-triazol-1-yl)methyl]benzoate] | 100 to 1000 nM
15 | Cc1nc(-c2ncc(-c3ccc(OC(F)(F)F)cc3)o2)nn1Cc1cccc(O)c1 [Example 156, 3-[(5-methyl-3-{5-[4-(trifluoromethoxy)phenyl]-1,3-oxazol-2-yl}-1H-1,2,4-triazol-1-yl)methyl]phenol] | 1000 to 10000 nM
16 | Cc1nc(-c2ncc(-c3ccc(OC(F)(F)F)cc3)o2)nn1Cc1cccc(C(=O)N(C)C)c1 [Example 157, N,N-dimethyl-3-[(5-methyl-3-{5-[4-(trifluoromethoxy)phenyl]-1,3-oxazol-2-yl}-1H-1,2,4-triazol-1-yl)methyl]benzamide] | 100 to 1000 nM
17 | COCCOc1cccc(Cn2nc(-c3ncc(-c4ccc(OC(F)(F)F)cc4)o3)nc2C)c1 [Example 158, l-{[3-(2-methoxyethoxy)phenyl]methyl}-5-methyl-3-{5-[4-(trifluoromethoxy)phenyl]-1,3-oxazol-2-yl}-1H-1,2,4-triazole] | < 100 nM
18 | Cc1nc(-c2ncc(-c3ccc(OC(F)(F)F)cc3)o2)nn1Cc1cccc(S(C)(=O)=O)c1 [Example 159, 1-[(3-methanesulfonylphenyl)methyl]-5-methyl-3-{5-[4-(trifluoromethoxy)phenyl]-1,3-oxazol-2-yl}-1H-1,2,4-triazole] | 100 to 1000 nM
19 | Cc1nc(-c2cc(-c3ccc(OC(F)(F)F)cc3)no2)nn1Cc1cccc(N2CCN(C)CC2)c1 [Example 160, 1-methyl-4-{3-[(5-methyl-3-{3-[4-(trifluoromethoxy)phenyl]-1,2-oxazol-5-yl}-1H-1,2,4-triazol-1-yl)methyl]phenyl}piperazine] | < 100 nM
20 | Cc1nc(-c2cc(-c3ccc(OC(F)(F)F)cc3)no2)nn1Cc1ccnc(N2CCN(C)CC2)c1 [Example 161, 1-methyl-4-{4-[(5-methyl-3-{3-[4-(trifluoromethoxy)phenyl]-1,2-oxazol-5-yl}-1H-1,2,4-triazol-1-yl)methyl]pyridin-2-yl}piperazine] | < 100 nM
21 | Cc1nc(-c2cc(-c3ccc(OC(F)(F)F)cc3)on2)nn1Cc1cccc(N2CCN(C)CC2)c1 [Example 162, 1-methyl-4-{3-[(5-methyl-3-{5-[4-(trifluoromethoxy)phenyl]-1,2-oxazol-3-yl}-1H-1,2,4-triazol-1-yl)methyl]phenyl}piperazine] | < 100 nM
22 | Cc1nc(-c2cc(-c3ccc(OC(F)(F)F)cc3)on2)nn1Cc1ccnc(N2CCN(C)CC2)c1 [Example 163, 1-methyl-4-{4-[(5-methyl-3-{5-[4-(trifluoromethoxy)phenyl]-1,2-oxazol-3-yl}-1H-1,2,4-triazol-1-yl)methyl]pyridin-2-yl}piperazine] | < 100 nM
